Test results as given in US6716858B1, “Methods for inhibiting diabetic complications” (Kansas University Medical Center, priority 1995, dated 2004).
Read-outs that look alike come from different tables or passages of the source. Values belong to the compound of their own block, whether it stands above or below them.

Legend:
[1] = test system: ribose-treated rats; experiment: Ribose rat model, intervention by compounds (Phase III); format: in vivo; conditions: for Albumin effusion rate (AER): absence of ribose, pyridoxamine and TPP 250 mg/kg, aminoguanidine 25 mg/kg
Protocol: Sixty rats were randomized into 9 different groups, including those exposed to 1 M ribose for 8 days in the presence and absence of aminoguanidine, pyridoxamine, and thiamine pyrophosphate as follows:
(ii) high dose (250 mg/kg body weight) of pyridoxamine (“compound-P”);
(iii) high dose (250 mg/kg body weight of thiamine pyrophosphate (“compound-T” or “TPP”); and
(iv) low dose (25 mg/kg body weight) of aminoguanidine (“AG”).
(i) only 1 M ribose-saline (2×9 cc daily IP for 8 days);
(ii) ribose plus low dose (“LP”) of pyridoxamine (25 mg/kg body weight injected as 0.5 ml with 9 cc ribose);
(iii) ribose plus high dose (“HP”) of pyridoxamine (250 mg/kg body weight injected as 0.5 ml with 9 cc ribose);
(iv) ribose plus high dose (“HT”) of thiamine pyrophosphate (250 mg/kg body weight injected as 0.5 ml with 9 cc ribose); and
(v) ribose plus low dose of amino guanidine (25 mg/kg body weight injected as 0.5 ml with 9 cc ribose).
Unlike Phase II, no ribose was administered in drinking water. Intervention compounds were pre-administered for one day prior to introducing them with ribose.

[2] = test system: Sprague-Dawley rats, glomerular changes; format: in vivo, rat; conditions: for effect of treatment on loss of Heparan Sulfate Proteoglycan side-chain staining (mAb JM-403): rats injected with Amadori-RSA or AGE-RSA (both cases); for microalbuminuria / albuminuria: rats receiving Amadori-RSA or AGE-RSA
Protocol: Male Sprague-Dawley rats (Sasco, 100 g) were used. After a 1 week adaptation period, rats were placed in metabolic cages to obtain a 24 hour urine specimen for 2 days before administration of injections. Rats were then divided into experimental and control groups and given tail vein injections with either saline, unmodified RSA (50 mg/kg), Amadori-RSA (50 mg/kg), NaBH4-reduced Amadori-RSA (50 mg/kg), or AGE-RSA (50 mg/kg).
Rats injected with Amadori-RSA and AGE-RSA were then either left untreated, or further treated by the administration of either aminoguanidine (AG; 25 mg/kg), pyridoxamine (PM; 25 mg/kg), or a combination of AG and PM (10 mg/kg each) through the drinking water. Body weight and water intake of the rats were monitored weekly in order to adjust dosages. At the conclusion of the experimental study the rats were placed in metabolic cages to obtain 24 hour urine specimen for 2 days prior to sacrificing the animals.
After perfusion with saline, kidney sections were fixed in ice-cold 10% neutral buffered formalin. Paraffin-embedded tissue sections from all rat groups (n=4 per group) were processed for staining with Harris' alum hematoxylin and eosin (H&E), perodic acid/Schiff reagent (PAS), and alcian blue (pH 1.0 and pH 2.5) stains for histological examination. The alcian blue sections were scored by two investigators in a blinded fashion.
Parrafin-embedded sections were deparaffinized and then blocked with 10% goat serum in PBS for 30 min at room temperature. […] The sections were then rinsed for 30 min with PBS in the dark, mounted in aqueous mounting media for immunocytochemistry (Biomeda), and cover slipped. Sections were scored in a blinded fashion. Kidney sections were evaluated by the number and intensity of glomerular staining in 5 regions around the periphery of the kidney. Scores were normalized for the immunofluorescent score per 100 glomeruli with a scoring system of 0-3.
All animals studies were carried out in conformance with institutional guidelines for animal research protocols. Male Sprague-Dawley 100 g rats (Sasco Co., Omaha Nebr.) were used in these studies. After a 1 week adaptation period, rats were placed in metabolic cages for 2 days to get two 24 hour urine specimens before starting treatment. Rats were then given daily single tail vein injections for 6 weeks according to the following treatment groups: saline, unmodified RSA (50 mg/kg), Amadori-RSA (50 mg/kg), NaBH4-reduced Amadori-RSA (50 mg/kg), and AGE-RSA (50 mg/kg). Groups of rats injected with Amadori-RSA or AGE-RSA were also administered aminoguanidine (25 mg/kg/day), pyridoxamine (25 mg/kg/day), a combination of the two (10 mg/kg/day each), or with nothing added to the drinking water. Body weight and water intake of the rat were monitored weekly in order to adjust dosages. At the conclusion of the study, the rats were placed in metabolic cages for two days to get two 24 hour urine specimens before sacrificing the animals.
Total protein in urine was determined by Bio-Rad assay. Albumin in urine was determined by competitive ELISA using rabbit anti-rat serum albumin (Cappell) as primary antibody (1:2000) and goat anti-rabbit IgG (Sigma) as a secondary antibody (1:2000). Urine was tested with Multistix 8 SG (Miles) for glucose, ketone, specific gravity, blood, pH, protein, nitrite and leukocytes. Creatinine measurements were performed with a Beckman creatinine analyzer II. Intracardiac blood samples were collected before termination and were used in the determination of creatinine clearance, blood glucose (glucose oxidase, Sigma), fructosamine (nitroblue tetrazolium, Sigma), and glycated Hb (Glycotest II analytical boronate columns, Pierce).
After perfusion with saline, kidney sections were fixed in ice-cold 10% neutral buffered formalin. […]

[3] = co-administered with 1 M ribose, low dose 25 mg/kg
[4] = Amadori-RSA injected rats, 6 weeks
[5] = rats injected with Amadori-RSA or AGE-RSA
[6] = co-administered with 1 M ribose, 250 mg/kg
[7] = compound alone, 250 mg/kg, no ribose
[8] = 6 weeks, n = 4, average with standard error

Albumin effusion rate (AER) [1]: elevated
SMILES: N=C(N)NN [aminoguanidine, reference compound]
Albumin effusion rate [1, 3]: restored to normal
creatinine clearance [1, 3]: normalized
effect of treatment on glomerular albumin cross-linking ([2]; AGE-RSA injected rats): intermediate results but did not lead to statistically significant differences from either the controls or from the untreated subgroup
effect of treatment on glomerular volume (GV) ([2]; AGE-RSA injected rats, 6 weeks): significant elevation in GV persisted
effect of treatment on HS loss ([2]; Amadori-RSA injected rats): appeared to not prevent this loss
effect of treatment on glomerular volume (GV) [2, 4]: No statistically significant differences
effect of treatment on elevated glomerular staining for RSA [2, 5]: not with AG
effect of treatment on increase in average glomerular volume [2, 5]: No effect

Albumin effusion rate (AER) [1]: elevated
SMILES: Cc1ncc(CO)c(CN)c1O [pyridoxamine]
creatinine clearance [1, 6]: only partial protection against the ribose-induced decrease in creatinine clearance
Albumin effusion rate [1, 3]: restored to normal
creatinine clearance [1, 3]: normalized
creatinine clearance [1, 7]: but not pyridoxamine, appeared to decrease creatinine clearance
Alcian Blue pH 1.0, scoring of glomerular staining (sulfated glycosaminoglycans) [2, 8]: 2.62 ± 0.24
Alcian Blue pH 2.5, scoring of glomerular staining (acidic glycosaminoglycans) [2, 8]: 1.56 ± 0.21
HS core protein (Ab BL-31), scoring of glomerular staining [2, 8]: 234 ± 8
effect of treatment on glomerular albumin cross-linking ([2]; AGE-RSA injected rats): completely blocked
effect of treatment on glomerular volume (GV) ([2]; AGE-RSA injected rats, 6 weeks): completely prevented
effect of treatment on glomerular albumin cross-linking ([2]; Amadori-RSA injected rats): significantly lower cross-linking than Aminoguanidine
effect of treatment on glomerular volume (GV) [2, 4]: no significant changes from controls
Creat C-2wk ([2]; creatinine clearance at 2 weeks, n = 4): 0.66 ± 0.07 ml/(min*100g)
Creat C-6wk ([2]; creatinine clearance at 6 weeks, n = 4): 0.66 ± 0.17 ml/(min*100g)
effect of treatment on elevated glomerular staining for RSA [2, 5]: Significant reduction of this effect
effect of treatment on increase in average glomerular volume [2, 5]: A significant reduction of this effect
effect of treatment on reduced Heparan Sulfate Proteoglycan Core protein staining [2, 5]: A reduction of this effect
effect of treatment on loss of Heparan Sulfate Proteoglycan side-chain staining (mAb JM-403) [2]: completely prevented this loss
effect of treatment on loss of Heparan Sulfate Proteoglycan side-chain staining (mAb JM-403) ([2]; listed as PM): A significant reduction of this effect
microalbuminuria / albuminuria ([2]; 6 weeks): very low intra-group scatter and to the lowest means
microalbuminuria / albuminuria ([2]; 6 weeks, listed as PM): none was seen if PM was co-administered

Albumin effusion rate (AER) [1]: elevated
creatinine clearance [1, 7]: diminished it
SMILES: Cc1ncc(C[n+]2csc(CCO[P@](=O)(O)OP(=O)(O)O)c2C)c(N)n1 [thiamine pyrophosphate]
creatinine clearance [1, 6]: only partial protection against the ribose-induced decrease in creatinine clearance
